Experiments:
Assay in all cases: Competitive ABPP / direct target identification with alkyne probe 9 in HEK293 cell lysates
Assay type in all cases: binding, H. sapiens
[1] = biological target: T1, HEK293 cell lysates (proteome-wide targets of probe 9) (Homo sapiens, UniProt P04259); conditions: protein KRT6B
T1 construct: endogenous in cells; host or cells: HEK293 cell lysate

[2] = biological target: T2, HEK293 cell lysates (proteome-wide targets of probe 9) (Homo sapiens, UniProt P05165); conditions: protein PCCA
T2 construct: endogenous in cells; host or cells: HEK293 cell lysate

[3] = biological target: T3, HEK293 cell lysates (proteome-wide targets of probe 9) (Homo sapiens, UniProt P08238); conditions: protein HSP90AB1
T3 construct: endogenous in cells; host or cells: HEK293 cell lysate

[4] = biological target: T4, HEK293 cell lysates (proteome-wide targets of probe 9) (Homo sapiens, UniProt P11586); conditions: protein MTHFD1
T4 construct: endogenous in cells; host or cells: HEK293 cell lysate

[5] = biological target: T5, HEK293 cell lysates (proteome-wide targets of probe 9) (Homo sapiens, UniProt P12277); conditions: protein CKB
T5 construct: endogenous in cells; host or cells: HEK293 cell lysate

[6] = biological target: T6, HEK293 cell lysates (proteome-wide targets of probe 9) (Homo sapiens, UniProt P13639); conditions: protein EEF2
T6 construct: endogenous in cells; host or cells: HEK293 cell lysate

[7] = biological target: T7, HEK293 cell lysates (proteome-wide targets of probe 9) (Homo sapiens, UniProt P23396); conditions: protein RPS3
T7 construct: endogenous in cells; host or cells: HEK293 cell lysate

[8] = biological target: T8, HEK293 cell lysates (proteome-wide targets of probe 9) (Homo sapiens, UniProt P23526); conditions: protein AHCY
T8 construct: endogenous in cells; host or cells: HEK293 cell lysate

[9] = biological target: T9, HEK293 cell lysates (proteome-wide targets of probe 9) (Homo sapiens, UniProt P29401); conditions: protein TKT
T9 construct: endogenous in cells; host or cells: HEK293 cell lysate

[10] = biological target: T10, HEK293 cell lysates (proteome-wide targets of probe 9) (Homo sapiens, UniProt P32119); conditions: protein PRDX2
T10 construct: endogenous in cells; host or cells: HEK293 cell lysate

[11] = biological target: T11, HEK293 cell lysates (proteome-wide targets of probe 9) (Homo sapiens, UniProt P40926); conditions: protein MDH2
T11 construct: endogenous in cells; host or cells: HEK293 cell lysate

[12] = biological target: T12, HEK293 cell lysates (proteome-wide targets of probe 9) (Homo sapiens, UniProt P46776); conditions: protein RPL27A
T12 construct: endogenous in cells; host or cells: HEK293 cell lysate

[13] = biological target: T13, HEK293 cell lysates (proteome-wide targets of probe 9) (Homo sapiens, UniProt P48147); conditions: protein PREP (Prolyl endopeptidase)
T13 construct: endogenous in cells; host or cells: HEK293 cell lysate

[14] = biological target: T14, HEK293 cell lysates (proteome-wide targets of probe 9) (Homo sapiens, UniProt P49327); conditions: protein FASN
T14 construct: endogenous in cells; host or cells: HEK293 cell lysate

[15] = biological target: T15, HEK293 cell lysates (proteome-wide targets of probe 9) (Homo sapiens, UniProt P49368); conditions: protein CCT3
T15 construct: endogenous in cells; host or cells: HEK293 cell lysate

[16] = biological target: T16, HEK293 cell lysates (proteome-wide targets of probe 9) (Homo sapiens, UniProt P61978); conditions: protein HNRNPK
T16 construct: endogenous in cells; host or cells: HEK293 cell lysate

[17] = biological target: T17, HEK293 cell lysates (proteome-wide targets of probe 9) (Homo sapiens, UniProt P62258); conditions: protein YWHAE
T17 construct: endogenous in cells; host or cells: HEK293 cell lysate

[18] = biological target: T18, HEK293 cell lysates (proteome-wide targets of probe 9) (Homo sapiens, UniProt P62805); conditions: protein HIST1H4A
T18 construct: endogenous in cells; host or cells: HEK293 cell lysate

[19] = biological target: T19, HEK293 cell lysates (proteome-wide targets of probe 9) (Homo sapiens, UniProt P62829); conditions: protein RPL23
T19 construct: endogenous in cells; host or cells: HEK293 cell lysate

[20] = biological target: T20, HEK293 cell lysates (proteome-wide targets of probe 9) (Homo sapiens, UniProt P62937); conditions: protein PPIA
T20 construct: endogenous in cells; host or cells: HEK293 cell lysate

[21] = biological target: T21, HEK293 cell lysates (proteome-wide targets of probe 9) (Homo sapiens, UniProt P68363); conditions: protein TUBA1B
T21 construct: endogenous in cells; host or cells: HEK293 cell lysate

[22] = biological target: T22, HEK293 cell lysates (proteome-wide targets of probe 9) (Homo sapiens, UniProt P81605); conditions: protein DCD
T22 construct: endogenous in cells; host or cells: HEK293 cell lysate

[23] = biological target: T23, HEK293 cell lysates (proteome-wide targets of probe 9) (Homo sapiens, UniProt Q02790); conditions: protein FKBP4
T23 construct: endogenous in cells; host or cells: HEK293 cell lysate

[24] = biological target: T24, HEK293 cell lysates (proteome-wide targets of probe 9) (Homo sapiens, UniProt Q06830); conditions: protein PRDX1
T24 construct: endogenous in cells; host or cells: HEK293 cell lysate

[25] = biological target: T25, HEK293 cell lysates (proteome-wide targets of probe 9) (Homo sapiens, UniProt Q07020); conditions: protein RPL18
T25 construct: endogenous in cells; host or cells: HEK293 cell lysate

[26] = biological target: T26, HEK293 cell lysates (proteome-wide targets of probe 9) (Homo sapiens, UniProt Q13085); conditions: protein ACACA
T26 construct: endogenous in cells; host or cells: HEK293 cell lysate

[27] = biological target: T27, HEK293 cell lysates (proteome-wide targets of probe 9) (Homo sapiens, UniProt Q13642); conditions: protein FHL1
T27 construct: endogenous in cells; host or cells: HEK293 cell lysate

[28] = biological target: T28, HEK293 cell lysates (proteome-wide targets of probe 9) (Homo sapiens, UniProt Q7Z5P9); conditions: protein MUC19
T28 construct: endogenous in cells; host or cells: HEK293 cell lysate

[29] = biological target: T29, HEK293 cell lysates (proteome-wide targets of probe 9) (Homo sapiens, UniProt Q96RQ3); conditions: protein MCCC1
T29 construct: endogenous in cells; host or cells: HEK293 cell lysate

[30] = biological target: T30, HEK293 cell lysates (proteome-wide targets of probe 9) (Homo sapiens, UniProt Q9H6P5); conditions: protein TASP1 (Threonine aspartase 1)
T30 construct: endogenous in cells; host or cells: HEK293 cell lysate

[31] = biological target: T31, HEK293 cell lysates (proteome-wide targets of probe 9) (Homo sapiens, UniProt Q9NR30); conditions: protein DDX21
T31 construct: endogenous in cells; host or cells: HEK293 cell lysate

C#CCCCP(=O)(OCC)N1CCCC(N)C1=O.O=C(O)C(F)(F)F (mixture of isomers) [Compound 9]
Log2-fold change (9/DMSO) [1]: -0.8544 | Log2-fold change (9/DMSO) [2]: -0.691 | Log2-fold change (9/DMSO) [3]: 0.02806 | Log2-fold change (9/DMSO) [4]: 0.4766 | Log2-fold change (9/DMSO) [5]: 0.9157 | Log2-fold change (9/DMSO) [6]: 0.2112 | Log2-fold change (9/DMSO) [7]: 0.2732 | Log2-fold change (9/DMSO) [8]: -0.3328 | Log2-fold change (9/DMSO) [9]: -1.0711 | Log2-fold change (9/DMSO) [10]: 0.06438 | Log2-fold change (9/DMSO) [11]: 0.889 | Log2-fold change (9/DMSO) [12]: -2.372 | Log2-fold change (9/DMSO) [13]: 4.8 | Log2-fold change (9/DMSO) [14]: 0.4818 | Log2-fold change (9/DMSO) [15]: 1.2654 | Log2-fold change (9/DMSO) [16]: 0.1297 | Log2-fold change (9/DMSO) [17]: 0.2377 | Log2-fold change (9/DMSO) [18]: -0.9831 | Log2-fold change (9/DMSO) [19]: 0.1532 | Log2-fold change (9/DMSO) [20]: 1.44 | Log2-fold change (9/DMSO) [21]: 0.8793 | Log2-fold change (9/DMSO) [22]: -2.5876 | Log2-fold change (9/DMSO) [23]: 0.6761 | Log2-fold change (9/DMSO) [24]: 0.4333 | Log2-fold change (9/DMSO) [25]: 1.2987 | Log2-fold change (9/DMSO) [26]: -0.276 | Log2-fold change (9/DMSO) [27]: -0.4077 | Log2-fold change (9/DMSO) [28]: -1.528 | Log2-fold change (9/DMSO) [29]: -0.5895 | Log2-fold change (9/DMSO) [30]: -4.505 | Log2-fold change (9/DMSO) [31]: 0.9591

CCCCCc1ccc(SCCP(=O)(OCC)N2CCC[C@H](N)C2=O)cc1.O=C(O)C(F)(F)F (some centres unmarked) [Compound 16]
Log2-fold change (16/9) [1]: 1.89 | Log2-fold change (16/9) [2]: 0.1044 | Log2-fold change (16/9) [3]: -0.3526 | Log2-fold change (16/9) [4]: -0.2924 | Log2-fold change (16/9) [5]: -0.7041 | Log2-fold change (16/9) [6]: -0.2717 | Log2-fold change (16/9) [7]: -0.6746 | Log2-fold change (16/9) [8]: -0.05498 | Log2-fold change (16/9) [9]: 1.379 | Log2-fold change (16/9) [10]: 1.348 | Log2-fold change (16/9) [11]: -2.217 | Log2-fold change (16/9) [12]: 0.01928 | Log2-fold change (16/9) [13]: -0.8405 | Log2-fold change (16/9) [14]: -0.4881 | Log2-fold change (16/9) [15]: -1.0355 | Log2-fold change (16/9) [16]: -0.758 | Log2-fold change (16/9) [17]: 0.3661 | Log2-fold change (16/9) [18]: 0.1177 | Log2-fold change (16/9) [19]: -1.084 | Log2-fold change (16/9) [20]: -1.716 | Log2-fold change (16/9) [21]: -1.967 | Log2-fold change (16/9) [22]: 2.05 | Log2-fold change (16/9) [23]: -0.2833 | Log2-fold change (16/9) [24]: 0.107 | Log2-fold change (16/9) [25]: -1.003 | Log2-fold change (16/9) [26]: 0.3401 | Log2-fold change (16/9) [27]: 0.2096 | Log2-fold change (16/9) [28]: 0.8224 | Log2-fold change (16/9) [29]: 0.1036 | Log2-fold change (16/9) [30]: 0.8543 | Log2-fold change (16/9) [31]: 0.06992
